Experimental data published in patent publication US4629737A, “Secondary amines and use in pharmaceutical compositions” (Beecham Group p.l.c., priority 1982, dated 1986).
Where a name gives a salt, the structure may show the parent alone. Read-outs that look alike come from different tables or passages of the source.

What was measured:
[1] = system: platelet aggregation in human whole blood; assay: Collagen-induced platelet aggregation in human whole blood in vitro; assay type: cell-based; details: 3 mins pre-incubation
Method: Collagen-induced platelet aggregation in human whole blood in vitro.
Collagen added to stirred citrated blood causes platelet aggregation. As the platelets aggregate, the concentration of single platelets falls. […] Inhibitors of aggregation, such as aspirin and dipyridamole, reduce the response to collagen.
Blood drawn from volunteers who denied taking aspirin within the previous seven days was mixed with 0.1 vol 129 mM trisodium citrate, dispensed into 0.5 ml aliquots and kept at 25° C. Collagen (Hormon-Chemie, Munich) or 154 mM NaCl (control) was added to each aliquot of blood stirred at 1100 rpm in an aggregometer at 37° C. after 3 mins pre-incubation with compound or appropriate solvent. Aggregates were fixed by addition of 0.5 vol 4.5% formaldehyde or 0.05 vol phosphate-buffered glutaraldehyde. Single platelets were counted electronically. Responses, expressed as percent fall in platelet count, were obtained to a range of collagen concentrations. The concentration producing 50% maximal effect (EC50) was estimated from log10 concentration-response curves. Dose-ratios were calculated by dividing the EC50 obtained in the presence of compound under test by the control EC50.

blood glucose = assay: Hypoglycaemic activity: reduction in area under blood glucose curve after glucose load; assay type: in vivo, Female CFLP mice; details: Mus musculus, read-out: % Reduction in area under Blood Glucose Curve; for inhibition in vivo at 25 µmol/kg: 25 μmol/Kg oral
Method: Female CFLP mice, weighing approximately 25 g, were fasted for 24 hours prior to the study. The compounds under study were administered orally as an aqueous solution to each of 6 mice. 30 minutes later a blood sample (10 μl) was obtained from the tail for the analysis of blood glucose. Immediately after taking this blood sample, glucose (1 g/Kg body weight) was administered subcutaneously to each mouse. 6 mice were given water as a control. Blood samples were then obtained from each mouse at 30 minute intervals for 120 minutes.
Compounds that produced a significant (P<0.05) reduction of blood glucose, compared with control mice given water, at any time interval, were considered active. The area under the blood glucose curve over the 2 hour period after the administration of the glucose was calculated for each compound and compared with the value for control animals.

rat ear = assay: Topical anti-inflammatory activity, croton oil induced rat ear inflammation; assay type: in vivo; details: 1.00 mg/rat ear; 6 h; shown by significant (5% level) reduction in ear weight vs non-drug treated control
Method: The method used is based on that described by G. Tonelli et al (Endocrinology, 77, 625-634, 1965). An inflammation is induced in the rat ear by the application of 50 μl of a 1% solution of croton oil in tetrahydrofuran, test compounds being dissolved in the irritant vehicle. After 6 hours the inflammation is assessed by killing the animals and weighing the ears. Topical anti-inflammatory activity of a compound is generally considered to be shown when a significant (5% level) reduction in ear weight is seen compared to non-drug treated control.

[2] = Effect on energy expenditure of mice; assay type: in vivo, Female CFLP mice; details: Mus musculus; for response vs control in vivo at 23.9 mg/kg: 23.9 mg/kg po; for response vs control in vivo at 8.5 mg/kg: 8.5 mg/kg po
Method: Female CFLP mice, each weighing approximately 24 g were given food and water ad lib before and during the experiment. The compounds were dissolved in water by addition of one mole of hydrochloric acid per mole of compound and these solutions were administered orally to each of 12 mice. A further 12 mice were dosed orally with water. The mice were placed in boxes through which air was drawn and the oxygen content of the air leaving the boxes was measured. The energy expenditure of the mice was calculated for 21 hours after dosing from the volume of air leaving the boxes and its oxygen content, following the principles described by J. B. de V. Weir, J. Physiol. (London), 109, 1-9 (1949).

left atrium = assay: Isolated rat atria screen: tension of electrically paced left atrium; parameters: species or system Sprague-Dawley male rats; details: for EC50: concentration producing 50% of its own maximum response; for Emax: maximal effect relative to isoprenaline maximum (=1), read-out: Tension i.a. (intrinsic activity)
Method: (§1) Sprague-Dawley male rats (300-400 g) are killed and the right and left atria dissected out independently and mounted on a combined tissue holder/electrode. The tissues are then immersed in a glass bath containing Krebs solution maintained at 32° C. The rate of the spontaneously beating right atrium (via an isometric transducer and a ratemeter) and the tension of the electrically paced left atrium (via an isometric transducer) are recorded on an M19 chart recorder.
(§2) After an initial stabilization period, the tissues are exposed to a maximal concentration of isoprenaline (10^-7 M). The tissues are then washed several times until rate and tension return to baseline level. A dose-response curve to the test compound is then carried out.
(§3) Responses to each concentration of test compound are expressed as a percentage of the maximal responses to isoprenaline. Results are given in the form of (a) intrinsic activity (i.a.) (maximal effect of test compound with respect to isoprenaline maximum, i.e. isoprenaline intrinsic activity=1) and (b) EC50 (the molar concentration at which the test compound produces 50% of its own maximum response).

right atrium = assay: Isolated rat atria screen: rate of spontaneously beating right atrium; parameters: species or system Sprague-Dawley male rats; details: for Emax: maximal effect relative to isoprenaline maximum (=1), read-out: Rate i.a. (intrinsic activity)
Method: as §1, §2, §3

[3] = final concentration in whole blood 200 μM
[4] = po, 3 h, read-out: Mean Energy Expenditure (0-3 h)
[5] = po, 21 h, read-out: Mean Energy Expenditure (0-21 h)
[6] = 2 h after glucose 1 g/Kg s.c., vs control
[7] = 0-3 h, read-out: Mean Energy Expenditure (0-3 h)
[8] = 0-21 h, read-out: Mean Energy Expenditure (0-21 h)

CC(=O)Oc1ccccc1C(=O)O [Aspirin, reference compound]
DOSE RATIO (EC50 of collagen with compound / control EC50) [1, 3]: 2.0 ± 0.1

OCCN(CCO)c1nc(N2CCCCC2)c2nc(N(CCO)CCO)nc(N3CCCCC3)c2n1 [Dipyridamole, reference compound]
DOSE RATIO (EC50 of collagen with compound / control EC50) [1, 3]: 3.7 ± 1.1

COC(=O)COc1ccc(CC(C)NCC(OC)c2cccc(Cl)c2)cc1.Cl (stereo not drawn) [Example 1, N-[2-(4-Carbomethoxymethoxyphenyl)-1-methylethyl]-2-methoxy-2-(3-chlorophenyl)ethanamine hydrochloride]
inhibition in vivo at 0.25 µmol/kg (blood glucose; po, 2 h): 47% | Topical anti-inflammatory ACTIVITY (rat ear): Active | response vs control in vivo at 21.4 mg/kg [2, 4]: 151% | response vs control in vivo at 21.4 mg/kg [2, 5]: 138% | EC50 (left atrium): 30 µM | Emax (left atrium): 30% | DOSE RATIO (EC50 of collagen with compound / control EC50) ([1]; final concentration in whole blood 300 μM): 6.9 | Emax (right atrium): 0%

CNCCOc1ccc(CC(C)NCC(OC)c2cccc(Cl)c2)cc1 (stereo not drawn) [Example 6, N-[2-(4-(2-Methylaminoethoxy)phenyl)-1-methylethyl]-2-methoxy-2-(3-chlorophenyl)ethanamine dihydrochloride]
inhibition in vivo at 12.5 µmol/kg (blood glucose; po, 2 h): 55% | response vs control in vivo at 22.5 mg/kg [2, 4]: 154% | response vs control in vivo at 22.5 mg/kg [2, 5]: 126% | Emax (left atrium): 0% | Emax (right atrium): 0%

CNC(=O)COc1ccc(CC(C)NCC(OC)c2cccc(C(F)(F)F)c2)cc1 (stereo not drawn) [Example 7, N-[2-(4-Methylaminocarbonylmethoxyphenyl)-1-methylethyl]-2-methoxy-2-(3-trifluoromethylphenyl)ethanamine hydrochloride]
inhibition in vivo at 2.5 µmol/kg (blood glucose; po, 2 h): 32% | response vs control in vivo at 23 mg/kg [2, 4]: 143% | response vs control in vivo at 23 mg/kg [2, 5]: 123% | EC50 (left atrium): 36 µM | Emax (left atrium): 23% | EC50 (right atrium; concentration producing 50% of its own maximum response): 1.5 µM | Emax (right atrium): 6%

CCCOC(CNC(C)Cc1ccc(OCCNC)cc1)c1cccc(Cl)c1 (stereo not drawn) [Example 29, N-[2-(4-(2-Methylaminoethoxy)phenyl)-1-methylethyl]-2-^n propoxy-2-(3-chlorophenyl)ethanamine dihydrochloride]
inhibition in vivo at 25 µmol/kg (blood glucose; [6]): 43% | Topical anti-inflammatory ACTIVITY (rat ear): Active | response vs control in vivo at 23.9 mg/kg [2, 7]: 144% | response vs control in vivo at 23.9 mg/kg [2, 8]: 118% | DOSE RATIO (EC50 of collagen with compound / control EC50) ([1]; final concentration in whole blood 100 μM): 10.8

COC(=O)/C=C/c1ccc(CC(C)NCC(OC)c2cccc(Cl)c2)cc1 (stereo not drawn) [Example 47, N-[2-(4-{[E]-2-Carbomethoxyethenyl}phenyl)-1-methylethyl]-2-methoxy-2-(3-chlorophenyl)ethanamine hydrochloride]
inhibition in vivo at 12.5 µmol/kg (blood glucose; po, 2 h): 41% | response vs control in vivo at 21.3 mg/kg [2, 4]: 130% | response vs control in vivo at 21.3 mg/kg [2, 5]: 109%

COC(CNC(C)Cc1ccc(OCCO)cc1)c1cccc(Cl)c1 (stereo not drawn) [Example 48, N-[2-{4-(2-Hydroxyethoxy)phenyl}-1-methylethyl]-2-methoxy-2-(3-chlorophenyl)ethanamine hydrobromide]
inhibition in vivo at 0.5 µmol/kg (blood glucose; po, 2 h): 31% | response vs control in vivo at 22.2 mg/kg [2, 4]: 128% | response vs control in vivo at 22.2 mg/kg [2, 5]: 131%

COC(=O)Cc1ccc(CC(C)NCC(OC)c2cccc(Cl)c2)cc1 (stereo not drawn) [Example 49, N-[2-(4-Carbomethoxymethylphenyl)-1-methylethyl]-2-methoxy-2-(3-chlorophenyl)ethanamine hydrochloride]
inhibition in vivo at 12.5 µmol/kg (blood glucose; po, 2 h): 47% | response vs control in vivo at 20.6 mg/kg [2, 4]: 131% | response vs control in vivo at 20.6 mg/kg [2, 5]: 135%

COC(=O)COc1ccc(CC(C)NCC(OCc2ccccc2)c2cccc(Cl)c2)cc1 (stereo not drawn) [Example 50, N-[2-(4-Carbomethoxymethoxyphenyl)-1-methylethyl]-2-benzyloxy-2-(3-chlorophenyl)ethanamine hydrochloride]
inhibition in vivo at 2.5 µmol/kg (blood glucose; po, 2 h): 41% | response vs control in vivo at 24.6 mg/kg [2, 4]: 142% | response vs control in vivo at 24.6 mg/kg [2, 5]: 116%

CNC(=O)COc1ccc(CCNCC(OC)c2cccc(Cl)c2)cc1 (stereo not drawn) [Example 51, N-[2-(4-Methylaminocarbonylmethoxyphenyl)ethyl]-2-methoxy-2-(3-chlorophenyl)ethanamine hydrochloride]
inhibition in vivo at 12.5 µmol/kg (blood glucose; 12.5 μmol/Kg oral, 2 h after glucose 1 g/Kg s.c., vs control): 45% | response vs control in vivo at 20.7 mg/kg [2, 5]: 108% | response vs control in vivo at 20.7 mg/kg ([2]; 20.7 mg/kg po, 0-3 h, read-out: Mean Energy Expenditure (0-3 h)): 128%

CNC(=O)COc1ccc(CC(C)NCC(COc2ccccc2)OC)cc1 (stereo not drawn) [Example 52, N-[2-(4-Methylaminocarbonylmethoxyphenyl)-1-methylethyl]-2-methoxy-3-phenoxypropanamine hydrochloride]
inhibition in vivo at 12.5 µmol/kg (blood glucose; po, 2 h): 35% | response vs control in vivo at 21.1 mg/kg [2, 4]: 130% | response vs control in vivo at 21.1 mg/kg [2, 5]: 113%

CNC(=O)COc1ccc(CC(C)NCC(OC)c2ccccc2F)cc1 (stereo not drawn) [Example 55, N-[2-(4-Methylaminocarbonylmethoxyphenyl)-1-methylethyl]-2-methoxy-2-(2-fluorophenyl)ethanamine hydrochloride]
inhibition in vivo at 12.5 µmol/kg (blood glucose; po, 2 h): 42% | response vs control in vivo at 20.6 mg/kg [2, 4]: 150% | response vs control in vivo at 20.6 mg/kg [2, 5]: 121%

CNC(=O)COc1ccc(CC(C)NCC(OC)c2cccc(C)c2)cc1 (stereo not drawn) [Example 56, N-[2-(4-Methylaminocarbonylmethoxyphenyl)-1-methylethyl]-2-methoxy-2-(3-methylphenyl)ethanamine hydrochloride]
inhibition in vivo at 12.5 µmol/kg (blood glucose; po, 2 h): 40% | response vs control in vivo at 20.4 mg/kg [2, 4]: 148% | response vs control in vivo at 20.4 mg/kg [2, 5]: 108%

COC(CNC(C)Cc1ccc(OCCOc2ccccc2)cc1)c1cccc(Cl)c1 (stereo not drawn) [Example 57, N-[2-(4-(2-Phenoxyethoxy)phenyl)-1-methylethyl]-2-methoxy-2-(3-chlorophenyl)ethanamine hydrochloride]
inhibition in vivo at 2.5 µmol/kg (blood glucose; po, 2 h): 28% | response vs control in vivo at 23.8 mg/kg [2, 4]: 178% | response vs control in vivo at 23.8 mg/kg [2, 5]: 123%

COC(=O)CN(C)c1ccc(CC(C)NCC(OC)c2ccccc2)cc1 (stereo not drawn) [Example 58, N-[2-(4-N'-Methyl-N'-carbomethoxymethylaminophenyl)-1-methylethyl]-2-methoxy-2-phenylethanamine dihydrochloride]
inhibition in vivo at 2.5 µmol/kg (blood glucose; 2.5 μmol/Kg oral, 2 h after glucose 1 g/Kg s.c., vs control): 17% | response vs control in vivo at 22.1 mg/kg [2, 5]: 108% | response vs control in vivo at 22.1 mg/kg ([2]; 22.1 mg/kg po, 0-3 h, read-out: Mean Energy Expenditure (0-3 h)): 131%

CNCCOc1ccc(C[C@@H](C)NC[C@H](OC)c2ccccc2)cc1 [Example 59, N-[2-(4-(2-Methylaminoethoxy)phenyl)-1-(R)-1-methylethyl]-2-(R)-2-methoxy-2-phenylethanamine dihydrochloride hemihydrate]
inhibition in vivo at 25 µmol/kg (blood glucose; [6]): 36% | response vs control in vivo at 8.5 mg/kg [2, 7]: 148% | response vs control in vivo at 8.5 mg/kg [2, 8]: 111%
